Test results published in patent publication US9034921B2, “Diphenylmethane derivatives as SGLT2 inhibitors” (GREEN CROSS CORPORATION, priority 2011, dated 2015).
pIC50: −log10 of the molar value. Where a name gives a salt, the structure may show the parent alone.

molecular target: human SGLT2 (Homo sapiens (Human), UniProt P31639); test: Inhibitory effects on human SGLT2 activities (14C-AMG uptake, sodium-dependent glucose transport assay); type: cell-based; conditions: CHO cells stably expressing hSGLT2, 37° C., 2 h, single determinations
Text: Test 1: Cloning and Cell Line Construction for Human SGLT2
Human SGLT2 (hSGLT2) gene was amplified by PCR from cDNA-Human Adult Normal Tissue Kidney (Invitrogen). The hSGLT2 sequence was cloned into pcDNA3.1(+) for mammalian expression and stably transfected into chinese hamster ovary (CHO) cells. SGLT2-expressing clones were selected based on resistance to G418 antibiotic (Geneticin) and activity in the ^14C-α-methyl-D-glucopyranoside (^14C-AMG) uptake assay.
Test 2: Inhibitory Effects on Human SGLT2 Activities
For sodium-dependent glucose transport assay, cells expressing hSGLT2 were seeded into a 96-well culture plate at a density of 5×10^4 cells/well in RPMI medium 1640 containing 10% fetal bovine serum. The cells were used 1 day after plating. They were incubated in pretreatment buffer (10 mM HEPES, 5 mM Tris, 140 mM choline chloride, 2 mM KCl, 1 mM CaCl2, and 1 mM MgCl2, pH 7.4) at 37° C. for 10 min. They were then incubated in uptake buffer (10 mM HEPES, 5 mM Tris, 140 mM NaCl, 2 mM KCl, 1 mM CaCl2, 1 mM MgCl2, and 1 mM ^14C-nonlabeled AMG pH 7.4) containing ^14C-labeled AMG (8 μM) and the inventive compound or dimethyl sulfoxide (DMSO) vehicle at 37° C. for 2 h. Cells were washed twice with washing buffer (pretreatment buffer containing 10 mM AMG at room temperature) and then the radioactivity was measured using a liquid scintillation counter. IC50 was determined by nonlinear regression analysis using GraphPad PRISM [Katsuno, K. et al. J. Pharmacol. Exp. Ther. 2007, 320, 323-330; Han, S. et al. Diabetes, 2008, 57, 1723-1729].

Sequence of human SGLT2 (P31639 whole entry): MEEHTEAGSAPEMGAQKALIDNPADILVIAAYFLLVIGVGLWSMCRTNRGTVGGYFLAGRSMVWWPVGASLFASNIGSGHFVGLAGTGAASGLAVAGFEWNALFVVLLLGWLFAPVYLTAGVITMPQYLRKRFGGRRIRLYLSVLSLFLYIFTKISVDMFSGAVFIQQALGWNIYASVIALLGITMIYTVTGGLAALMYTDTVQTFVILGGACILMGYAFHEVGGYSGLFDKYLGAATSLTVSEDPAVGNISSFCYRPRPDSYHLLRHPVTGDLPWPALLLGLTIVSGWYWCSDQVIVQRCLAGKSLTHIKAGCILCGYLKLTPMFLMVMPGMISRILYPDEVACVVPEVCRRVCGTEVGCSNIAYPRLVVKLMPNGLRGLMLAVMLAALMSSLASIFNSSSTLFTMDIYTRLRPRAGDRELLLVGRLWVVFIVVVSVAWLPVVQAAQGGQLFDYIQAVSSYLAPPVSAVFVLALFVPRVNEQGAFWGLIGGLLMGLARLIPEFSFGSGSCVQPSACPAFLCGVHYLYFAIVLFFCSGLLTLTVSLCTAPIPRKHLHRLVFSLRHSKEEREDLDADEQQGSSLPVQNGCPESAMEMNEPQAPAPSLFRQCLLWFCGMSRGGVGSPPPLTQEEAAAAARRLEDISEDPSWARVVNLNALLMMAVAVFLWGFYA

| Compound | pIC50 |
| --- | --- |
| OC[C@H]1O[C@@H](c2cc(Cc3ccc4c(c3)OCCO4)c(Cl)c3c2CCO3)[C@H](O)[C@@H](O)[C@@H]1O [Example E045, (2S,3R,4R,5S,6R)-2-(7-Chloro-6-((2,3-dihydrobenzo[b][1,4]dioxin-6-yl)methyl)-2,3-dihydrobenzofuran-4-yl)-6-(hydroxymethyl)tetrahydro-2H-pyran-3,4,5-triol] | 8.86 |
| CC1(C)COc2cc(Cc3cc([C@@H]4O[C@H](CO)[C@@H](O)[C@H](O)[C@H]4O)ccc3Cl)ccc2O1 [Example E064, (2S,3R,4R,5S,6R)-2-(4-Chloro-3-((2,2-dimethyl-2,3-dihydrobenzo[b][1,4]dioxin-6-yl)methyl)phenyl)-6-(hydroxymethyl)-tetrahydro-2H-pyran-3,4,5-triol] | 8.24 |
| CNc1ccc(Cc2cc([C@@H]3O[C@H](CO)[C@@H](O)[C@H](O)[C@H]3O)c3c(c2Cl)OCC3)cc1 [Example E141, (2S,3R,4R,5S,6R)-2-(7-Chloro-6-(4-(methylamino)benzyl)-2,3-dihydrobenzofuran-4-yl)-6-(hydroxymethyl)tetrahydro-2H-pyran-3,4,5-triol 2,2,2-trifluoroacetate] | 8.55 |
| OC[C@H]1O[C@@H](c2ccc(Cl)c(Cc3ccc(N4CCCC4)cc3)c2)[C@H](O)[C@@H](O)[C@@H]1O [Example E221] | 8.66 |
| OC[C@H]1O[C@@H](c2cc(Cc3ccc(CN4CC4)cc3)c(Cl)c3c2CCO3)[C@H](O)[C@@H](O)[C@@H]1O [Example E185, (2S,3R,4R,5S,6R)-2-(6-(4-(Aziridin-1-ylmethyl)benzyl)-7-chloro-2,3-dihydrobenzofuran-4-yl)-6-(hydroxymethyl)tetrahydro-2H-pyran-3,4,5-triol trifluoro acetic acid salt] | 6.79 |
| CCOc1ccc(Cc2cc([C@@H]3O[C@H](C(C)O)[C@@H](O)[C@H](O)[C@H]3O)c3c(c2Cl)OCC3)cc1 (stereo partly drawn) [Example E127, (2S,3R,4R,5S,6R)-2-(7-Chloro-6-(4-ethoxybenzyl)-2,3-dihydrobenzofuran-4-yl)-6-(1-hydroxyethyl)tetrahydro-2H-pyran-3,4,5-triol] | 8.87 |
| CC1Cc2c([C@@H]3O[C@H](CO)[C@@H](O)[C@H](O)[C@H]3O)cc(Cc3ccc(C(C)C)cc3)c(Cl)c2O1 (stereo partly drawn) [Example E150, (2S,3R,4R,5S,6R)-2-(7-Chloro-6-(4-isopropylbenzyl)-2-methyl-2,3-dihydrobenzofuran-4-yl)-6-(hydroxymethyl)tetrahydro-2H-pyran-3,4,5-triol] | 8.84 |
| CSc1ccc(C2OCc3ccc([C@@H]4O[C@H](CO)[C@@H](O)[C@H](O)[C@H]4O)cc32)cc1 (stereo partly drawn) [Example E102, (2R,3S,4R,5R,6S)-2-(Hydroxymethyl)-6-(3-(4-(methylthio)phenyl)-1,3-dihydroisobenzofuran-5-yl)-tetrahydro-2H-pyran-3,4,5-triol] | 7.12 |
| OC[C@H]1O[C@@H](c2ccc(Cl)c(Cc3ccc4c(c3)CCC4)c2)[C@H](O)[C@@H](O)[C@@H]1O [Example E057, (2S,3R,4R,5S,6R)-2-(4-Chloro-3-((2,3-dihydro-1H-inden-5-yl)methyl)phenyl)-6-(hydroxymethyl)-tetrahydro-2H-pyran-3,4,5-triol] | 8.67 |
| COc1ccc(Cc2cc([C@@H]3O[C@H](CO)[C@@H](O)[C@H](O)[C@H]3O)c3c(c2Cl)OCC3)s1 [Example E207, (2S,3R,4R,5S,6R)-2-(7-Chloro-6-((5-methoxythiophen-2-yl)methyl)-2,3-dihydrobenzofuran-4-yl)-6-(hydroxymethyl)tetrahydro-2H-pyran-3,4,5-triol] | 8.43 |
| COc1ccc(Cc2cc([C@@H]3O[C@H](CO)[C@@H](O)[C@H](O)[C@H]3O)c3c(c2Cl)CCO3)cc1 [Example E021, (2S,3R,4R,5S,6R)-2-(4-Chloro-5-(4-methoxybenzyl)-2,3-dihydrobenzofuran-7-yl)-6-(hydroxymethyl)tetrahydro-2H-pyran-3,4,5-triol] | 8.76 |
| CCOc1ccc(Cc2cc([C@@H]3O[C@H](CO)[C@@H](O)[C@H](O)[C@H]3O)cc(-c3cccc(C#N)c3)c2C)cc1 [Example E087, 3′-(4-Ethoxybenzyl)-2′-methyl-5′-((2S,3R,4R,5S,6R)-3,4,5-trihydroxy-6-(hydroxymethyl)-tetrahydro-2H-pyran-2-yl)biphenyl-3-carbonitrile] | 7.41 |
| OC[C@H]1O[C@@H](c2cc(Cc3ccc(C(F)(F)F)cc3)c(Cl)c3c2OCC3)[C@H](O)[C@@H](O)[C@@H]1O [Example E122, (2S,3R,4R,5S,6R)-2-(4-Chloro-5-(4-(trifluoromethyl)benzyl)-2,3-dihydrobenzofuran-7-yl)-6-(hydroxymethyl)tetrahydro-2H-pyran-3,4,5-triol] | 8.71 |
| CCOc1ccc(Cc2cc([C@@H]3O[C@H](CO)[C@@H](O)[C@H](O)[C@H]3O)c3c(c2Cl)OCCC3)cc1 [Example E157, (2S,3R,4R,5S,6R)-2-(8-Chloro-7-(4-ethoxybenzyl)chroman-5-yl)-6-(hydroxymethyl)tetrahydro-2H-pyran-3,4,5-triol] | 8.89 |
| OC[C@H]1O[C@@H](c2ccc(Cl)c(Cc3ccc4c(c3)OCO4)c2)[C@H](O)[C@@H](O)[C@@H]1O [Example E056, (2S,3R,4R,5S,6R)-2-(3-(Benzo[d][1,3]dioxol-5-ylmethyl)-4-chlorophenyl)-6-(hydroxymethyl)-tetrahydro-2H-pyran-3,4,5-triol] | 8.59 |

Stronger by pIC50, values ahead:

| pIC50 | Compound |
| --- | --- |
| 8.94 | OC[C@H]1O[C@@H](c2cc(Cc3ccc(C(F)F)cc3)c(Cl)c3c2CCO3)[C@H](O)[C@@H](O)[C@@H]1O [Example E176, (2S,3R,4R,5S,6R)-2-(7-Chloro-6-(4-(difluoromethyl)benzyl)-2,3-dihydrobenzofuran-4-yl)-6-(hydroxymethyl)tetrahydro-2H-pyran-3,4,5-triol] |
| 9.34 | CS[C@H]1O[C@@H](c2cc(Cc3ccc4c(c3)OCCO4)c(Cl)cc2O)[C@H](O)[C@@H](O)[C@@H]1O [Example E098, (2S,3R,4R,5S,6R)-2-(4-Chloro-5-((2,3-dihydrobenzo[b][1,4]dioxin-6-yl)methyl)-2-hydroxyphenyl)-6-(methylthio)-tetrahydro-2H-pyran-3,4,5-triol] |
| 9.09 | Cc1ccc(Cc2cc([C@@H]3O[C@H](CO)[C@@H](O)[C@H](O)[C@H]3O)c3c(c2Cl)CCC3)cc1 [Example E139, (2S,3R,4R,5S,6R)-2-(7-Chloro-6-(4-methylbenzyl)-2,3-dihydro-1H-inden-4-yl)-6-(hydroxymethyl)tetrahydro-2H-pyran-3,4,5-triol] |
| 9.13 | C=Cc1ccc(Cc2cc([C@@H]3O[C@H](CO)[C@@H](O)[C@H](O)[C@H]3O)c3c(c2Cl)CCC3)cc1 [Example E117, (2S,3R,4R,5S,6R)-2-(7-Chloro-6-(4-vinylbenzyl)-2,3-dihydro-1H-inden-4-yl)-6-(hydroxymethyl)tetrahydro-2H-pyran-3,4,5-triol] |
| 8.99 | C#Cc1ccc(Cc2cc([C@@H]3O[C@H](CO)[C@@H](O)[C@H](O)[C@H]3O)c3c(c2Cl)OCC3)cc1 [Example E182, (2S,3R,4R,5S,6R)-2-(7-Chloro-6-(4-ethynylbenzyl)-2,3-dihydrobenzofuran-4-yl)-6-(hydroxymethyl)tetrahydro-2H-pyran-3,4,5-triol] |
| 9.10 | CC(C)c1ccc(Cc2cc([C@@H]3O[C@H](CO)[C@@H](O)[C@H](O)[C@H]3O)c3c(c2Cl)OCC3)cc1 [Example E181, (2S,3R,4R,5S,6R)-2-(7-Chloro-6-(4-isopropylbenzyl)-2,3-dihydrobenzofuran-4-yl)-6-(hydroxymethyl)tetrahydro-2H-pyran-3,4,5-triol] |
| 9.01 | COc1ccc(Cc2cc([C@@H]3O[C@H](CO)[C@@H](O)[C@H](O)[C@H]3O)c3c(c2Cl)CCCO3)cc1 [Example E016, (2S,3R,4R,5S,6R)-2-(5-Chloro-6-(4-methoxybenzyl)chroman-8-yl)-6-(hydroxymethyl)tetrahydro-2H-pyran-3,4,5-triol] |
| 9.08 | CCOc1ccc(Cc2cc([C@@H]3O[C@H](CO)[C@@H](O)[C@H](O)[C@H]3O)c3c(c2Cl)CCO3)cc1 [Example E022, (2S,3R,4R,5S,6R)-2-(4-Chloro-5-(4-ethoxybenzyl)-2,3-dihydrobenzofuran-7-yl)-6-(hydroxymethyl)tetrahydro-2H-pyran-3,4,5-triol] |
| 9.02 | CC(=O)c1ccc(Cc2cc([C@@H]3O[C@H](CO)[C@@H](O)[C@H](O)[C@H]3O)c3c(c2Cl)OCC3)cc1 [Example E168, 1-(4-((7-Chloro-4-((2S,3R,4R,5S,6R)-3,4,5-trihydroxy-6-(hydroxymethyl)tetrahydro-2H-pyran-2-yl)-2,3-dihydrobenzofuran-6-yl)methyl)phenyl)ethanone] |
| 9.08 | CCc1ccc(Cc2cc([C@@H]3O[C@H](CO)[C@@H](O)[C@H](O)[C@H]3O)c3c(c2Cl)OC(C)C3)cc1 (stereo partly drawn) [Example E136, (2S,3R,4R,5S,6R)-2-(7-Chloro-6-(4-ethylbenzyl)-2-methyl-2,3-dihydrobenzofuran-4-yl)-6-(hydroxymethyl)tetrahydro-2H-pyran-3,4,5-triol] |
